In ChEMBL document CHEMBL1201862, “PubChem BioAssay data set” (2004):
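Results reflect a 48-hour exposure of cells in 96-well plates to compound at five concentrations. GI50: concentration for 50% inhibition of growth.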 Calls of active or inactive are those of the source. Rule as the data show it: active = GI50 up to about 1.1 µM and inactive = higher.

Columns and labels:
Experiment in all cases: growth of human tumour cells (NCI), 48 h
TK-10 = system: TK-10
HCT-15 = system: HCT-15
CCRF-CEM = system: CCRF-CEM
MDA-N = system: MDA-N
COLO 205 = system: COLO 205
HOP-92 = system: HOP-92
M14 = system: M14
UO-31 = system: UO-31
T47D = system: T47D
OVCAR-4 = system: OVCAR-4
OVCAR-8 = system: OVCAR-8
EKVX = system: EKVX
RXF 393 = system: RXF 393
SK-MEL-28 = system: SK-MEL-28
ACHN = system: ACHN
MDA-MB-435 = system: MDA-MB-435
OVCAR-5 = system: OVCAR-5
786-0 = system: 786-0
NCI-H23 = system: NCI-H23
LOX IMVI = system: LOX IMVI

| Structure (SMILES) | GI50 (TK-10) | GI50 (HCT-15) [µM] | GI50 (CCRF-CEM) | GI50 (MDA-N) | GI50 (COLO 205) | GI50 (HOP-92) | GI50 (M14) | GI50 (UO-31) | GI50 (T47D) | GI50 (OVCAR-4) | GI50 (OVCAR-8) | GI50 (EKVX) | GI50 (RXF 393) | GI50 (SK-MEL-28) | GI50 (ACHN) | GI50 (MDA-MB-435) | GI50 (OVCAR-5) | GI50 (786-0) | GI50 (NCI-H23) | GI50 (LOX IMVI) |
| --- | --- | --- | --- | --- | --- | --- | --- | --- | --- | --- | --- | --- | --- | --- | --- | --- | --- | --- | --- | --- |
| CN(C)CCc1c2c(nc3ccccc13)C(=O)c1cccnc1C2=O | 1.3 µM (inactive) | 0.0348 | 0.682 µM (active) | 0.352 µM (active) | 1.97 µM (inactive) | 1.49 µM (inactive) | 0.102 µM (active) | 0.197 µM (active) | 1.83 µM (inactive) | 0.31 µM (active) | 0.184 µM (active) | 1.55 µM (inactive) | 0.172 µM (active) | 0.492 µM (active) | 0.084 µM (active) | 0.331 µM (active) | 1.18 µM (inactive) | 0.121 µM (active) | 0.322 µM (active) | < 0.0476 µM (active) |
| Cc1ccc2c(c1C)C(=O)/C(=C/c1cccc(C)c1C(=O)O)C2 | > 100 µM (inactive) | 51.3 | 50.7 µM (inactive) | > 80.5 µM (inactive) | > 100 µM (inactive) | 19.2 µM (inactive) | 63.2 µM (inactive) | 2.2 µM (inactive) | > 100 µM (inactive) | > 79.6 µM (inactive) | 86.5 µM (inactive) | > 100 µM (inactive) | 63.1 µM (inactive) | 79.3 µM (inactive) | 72.3 µM (inactive) | 52.7 µM (inactive) | > 100 µM (inactive) | > 100 µM (inactive) | > 100 µM (inactive) | 44.1 µM (inactive) |
| COC1C(=O)N(SC)C1c1ccccc1Cl (stereo not given) | > 100 µM (inactive) | 22.3 | 14.6 µM (inactive) | 34.6 µM (inactive) | 51.8 µM (inactive) | 36.1 µM (inactive) | 28.1 µM (inactive) | 17.5 µM (inactive) | 27.4 µM (inactive) | 16.7 µM (inactive) | 19.6 µM (inactive) | 24.4 µM (inactive) | > 100 µM (inactive) | > 100 µM (inactive) | 18.8 µM (inactive) | 21.3 µM (inactive) | 17.8 µM (inactive) | 18.7 µM (inactive) | > 100 µM (inactive) | 42.2 µM (inactive) |
| CC(C)=CCC[C@@H](C)C1=C(O)C(=O)C(C)=C(Nc2ccccc2I)C1=O | 22.1 µM (inactive) | 6.56 | 3.03 µM (inactive) | 21.2 µM (inactive) | 15.5 µM (inactive) | 14.5 µM (inactive) | 17 µM (inactive) | 10.1 µM (inactive) | 8.2 µM (inactive) | 5.01 µM (inactive) | 3.08 µM (inactive) | 18.2 µM (inactive) | 13.2 µM (inactive) | 18.3 µM (inactive) | 16.4 µM (inactive) | 21.5 µM (inactive) | 38.2 µM (inactive) | 13.5 µM (inactive) | 6.05 µM (inactive) | 5.73 µM (inactive) |
| CC(C)(C)Cc1cc(O)ccc1O | > 100 µM (inactive) | 34.7 | 26.5 µM (inactive) | 43.2 µM (inactive) | > 100 µM (inactive) | > 100 µM (inactive) | 46.2 µM (inactive) | > 100 µM (inactive) | 60.5 µM (inactive) | > 100 µM (inactive) | 53 µM (inactive) | 48.9 µM (inactive) | 98.6 µM (inactive) | > 100 µM (inactive) | 86.1 µM (inactive) | 39.1 µM (inactive) | > 100 µM (inactive) | 63.5 µM (inactive) | 77.3 µM (inactive) | 60.3 µM (inactive) |
| CN1C[C@@H]2CCCN2P1Oc1cccc2cccnc12 (stereo not given in full) | 75.7 µM (inactive) | 16.6 | 2.41 µM (inactive) | 55.2 µM (inactive) | 30.5 µM (inactive) | > 100 µM (inactive) | 33.7 µM (inactive) | 34.9 µM (inactive) | 9.77 µM (inactive) | 32.8 µM (inactive) | 42.6 µM (inactive) | 29 µM (inactive) | > 100 µM (inactive) | 73.1 µM (inactive) | 49 µM (inactive) | 45.6 µM (inactive) | 32.6 µM (inactive) | > 100 µM (inactive) | 17.9 µM (inactive) | 97.5 µM (inactive) |
